Experiments:
Assay in all cases: kinome screen (33PanQinase)
Type in all cases: biochemical
ARK5 = target: T1, ARK5 (Homo sapiens, UniProt O60285)
T1 construct: purchased Reaction Biology Europe GmbH (formerly ProQinase)
T1 sequence (O60285 1-661): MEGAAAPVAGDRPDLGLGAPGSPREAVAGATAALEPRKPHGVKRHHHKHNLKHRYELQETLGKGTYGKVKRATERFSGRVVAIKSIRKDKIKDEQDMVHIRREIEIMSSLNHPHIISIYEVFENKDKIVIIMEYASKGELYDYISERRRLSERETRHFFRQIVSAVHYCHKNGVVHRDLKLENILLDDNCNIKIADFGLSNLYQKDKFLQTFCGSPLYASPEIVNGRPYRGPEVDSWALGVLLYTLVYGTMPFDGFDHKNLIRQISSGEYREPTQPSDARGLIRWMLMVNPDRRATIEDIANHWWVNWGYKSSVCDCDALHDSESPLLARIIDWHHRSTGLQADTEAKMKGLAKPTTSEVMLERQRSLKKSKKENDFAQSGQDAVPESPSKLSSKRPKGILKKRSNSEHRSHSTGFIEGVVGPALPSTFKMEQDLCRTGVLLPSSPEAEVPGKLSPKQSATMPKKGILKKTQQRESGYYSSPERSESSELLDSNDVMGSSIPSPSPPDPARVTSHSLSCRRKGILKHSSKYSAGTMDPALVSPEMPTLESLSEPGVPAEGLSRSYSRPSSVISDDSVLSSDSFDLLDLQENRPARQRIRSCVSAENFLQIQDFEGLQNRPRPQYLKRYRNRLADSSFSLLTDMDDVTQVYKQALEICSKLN
Protocol: (§1) The Kinome Screening was performed by Reaction Biology Europe GmbH (http://reactionbiology.com; Freiburg i. Br., Germany).

BTK = target: T2, BTK (Homo sapiens, UniProt Q06187)
T2 construct: purchased Reaction Biology Europe GmbH (formerly ProQinase)
T2 sequence (Q06187 whole entry): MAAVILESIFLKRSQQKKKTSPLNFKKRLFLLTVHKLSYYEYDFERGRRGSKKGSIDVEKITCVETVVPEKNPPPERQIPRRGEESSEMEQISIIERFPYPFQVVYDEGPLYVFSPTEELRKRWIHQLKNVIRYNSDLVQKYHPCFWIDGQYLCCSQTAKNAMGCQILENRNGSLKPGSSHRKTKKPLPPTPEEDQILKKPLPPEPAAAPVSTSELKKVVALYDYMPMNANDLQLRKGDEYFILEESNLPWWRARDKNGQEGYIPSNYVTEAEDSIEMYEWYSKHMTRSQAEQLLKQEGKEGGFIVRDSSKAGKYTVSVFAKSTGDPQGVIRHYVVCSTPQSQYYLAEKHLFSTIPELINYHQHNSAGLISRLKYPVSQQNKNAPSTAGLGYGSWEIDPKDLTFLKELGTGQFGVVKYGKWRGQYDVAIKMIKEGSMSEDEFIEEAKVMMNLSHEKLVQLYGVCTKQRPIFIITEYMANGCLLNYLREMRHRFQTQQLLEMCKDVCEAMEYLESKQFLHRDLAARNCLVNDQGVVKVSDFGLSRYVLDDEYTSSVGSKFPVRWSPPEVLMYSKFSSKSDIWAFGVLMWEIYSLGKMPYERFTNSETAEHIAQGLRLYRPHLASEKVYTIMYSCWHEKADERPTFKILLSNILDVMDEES
Protocol: as §1

CAMK2D = target: T3, CAMK2D (Homo sapiens, UniProt Q13557)
T3 construct: purchased Reaction Biology Europe GmbH (formerly ProQinase)
Protocol: as §1

CDK20/CycH = target: T4, CDK20/CycH (Homo sapiens, UniProt Q8IZL9)
T4 construct: purchased Reaction Biology Europe GmbH (formerly ProQinase)
T4 sequence (Q8IZL9 whole entry): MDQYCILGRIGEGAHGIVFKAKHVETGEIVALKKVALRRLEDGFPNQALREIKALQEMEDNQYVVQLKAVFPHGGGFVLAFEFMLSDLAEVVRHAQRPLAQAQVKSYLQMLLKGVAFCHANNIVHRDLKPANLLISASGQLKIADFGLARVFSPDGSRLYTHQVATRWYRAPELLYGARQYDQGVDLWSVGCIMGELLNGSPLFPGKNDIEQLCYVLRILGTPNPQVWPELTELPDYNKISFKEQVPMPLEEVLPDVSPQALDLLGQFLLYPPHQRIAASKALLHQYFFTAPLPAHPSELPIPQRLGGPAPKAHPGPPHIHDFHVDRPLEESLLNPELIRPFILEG
T4 sequence (P51946 whole entry partner): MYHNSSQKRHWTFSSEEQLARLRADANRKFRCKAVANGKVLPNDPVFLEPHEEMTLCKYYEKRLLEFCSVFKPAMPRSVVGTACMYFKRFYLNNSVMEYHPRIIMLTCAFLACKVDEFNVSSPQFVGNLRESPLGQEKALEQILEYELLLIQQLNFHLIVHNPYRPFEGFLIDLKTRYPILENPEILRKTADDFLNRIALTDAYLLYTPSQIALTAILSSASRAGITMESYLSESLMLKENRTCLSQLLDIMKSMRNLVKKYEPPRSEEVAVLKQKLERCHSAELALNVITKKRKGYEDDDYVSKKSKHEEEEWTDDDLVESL
Protocol: as §1

CDK20/CycT1 = target: T5, CDK20/CycT1 (Homo sapiens, UniProt Q8IZL9)
T5 construct: purchased Reaction Biology Europe GmbH (formerly ProQinase)
T5 sequence (Q8IZL9 whole entry): as the sequence (Q8IZL9 whole entry) above
T5 sequence (O60563 whole entry partner): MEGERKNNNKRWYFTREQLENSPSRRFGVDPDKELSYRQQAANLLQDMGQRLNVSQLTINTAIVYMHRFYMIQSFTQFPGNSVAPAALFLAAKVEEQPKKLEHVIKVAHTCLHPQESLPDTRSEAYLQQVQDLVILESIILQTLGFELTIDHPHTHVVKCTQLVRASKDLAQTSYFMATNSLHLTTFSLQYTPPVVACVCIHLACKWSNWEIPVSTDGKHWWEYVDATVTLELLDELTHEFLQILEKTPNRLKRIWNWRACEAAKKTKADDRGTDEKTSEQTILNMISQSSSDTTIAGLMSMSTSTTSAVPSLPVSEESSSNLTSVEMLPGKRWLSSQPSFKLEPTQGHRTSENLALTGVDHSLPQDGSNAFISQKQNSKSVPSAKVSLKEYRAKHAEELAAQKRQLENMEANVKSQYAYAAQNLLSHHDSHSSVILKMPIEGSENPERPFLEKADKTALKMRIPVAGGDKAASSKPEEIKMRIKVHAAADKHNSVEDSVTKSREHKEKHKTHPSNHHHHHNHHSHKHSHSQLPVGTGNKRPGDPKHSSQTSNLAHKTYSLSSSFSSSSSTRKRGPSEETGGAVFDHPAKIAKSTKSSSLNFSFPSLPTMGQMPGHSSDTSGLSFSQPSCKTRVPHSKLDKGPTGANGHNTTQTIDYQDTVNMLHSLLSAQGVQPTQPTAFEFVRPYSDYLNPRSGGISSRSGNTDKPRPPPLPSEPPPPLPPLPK
Protocol: as §1

CHK2 = target: T6, CHK2 (Homo sapiens, UniProt O96017)
T6 construct: purchased Reaction Biology Europe GmbH (formerly ProQinase)
Protocol: as §1

DYRK1B = target: T7, DYRK1B (Homo sapiens, UniProt Q9Y463)
T7 construct: purchased Reaction Biology Europe GmbH (formerly ProQinase)
Protocol: as §1

EGFR = target: T8, EGFR (Homo sapiens, UniProt P00533)
T8 construct: purchased Reaction Biology Europe GmbH (formerly ProQinase)
Protocol: as §1

FYN = target: T9, FYN (Homo sapiens, UniProt P06241)
T9 construct: purchased Reaction Biology Europe GmbH (formerly ProQinase)
Protocol: as §1

IRAK1 = target: T10, IRAK1 (Homo sapiens, UniProt P51617)
T10 construct: purchased Reaction Biology Europe GmbH (formerly ProQinase)
T10 sequence (P51617 whole entry): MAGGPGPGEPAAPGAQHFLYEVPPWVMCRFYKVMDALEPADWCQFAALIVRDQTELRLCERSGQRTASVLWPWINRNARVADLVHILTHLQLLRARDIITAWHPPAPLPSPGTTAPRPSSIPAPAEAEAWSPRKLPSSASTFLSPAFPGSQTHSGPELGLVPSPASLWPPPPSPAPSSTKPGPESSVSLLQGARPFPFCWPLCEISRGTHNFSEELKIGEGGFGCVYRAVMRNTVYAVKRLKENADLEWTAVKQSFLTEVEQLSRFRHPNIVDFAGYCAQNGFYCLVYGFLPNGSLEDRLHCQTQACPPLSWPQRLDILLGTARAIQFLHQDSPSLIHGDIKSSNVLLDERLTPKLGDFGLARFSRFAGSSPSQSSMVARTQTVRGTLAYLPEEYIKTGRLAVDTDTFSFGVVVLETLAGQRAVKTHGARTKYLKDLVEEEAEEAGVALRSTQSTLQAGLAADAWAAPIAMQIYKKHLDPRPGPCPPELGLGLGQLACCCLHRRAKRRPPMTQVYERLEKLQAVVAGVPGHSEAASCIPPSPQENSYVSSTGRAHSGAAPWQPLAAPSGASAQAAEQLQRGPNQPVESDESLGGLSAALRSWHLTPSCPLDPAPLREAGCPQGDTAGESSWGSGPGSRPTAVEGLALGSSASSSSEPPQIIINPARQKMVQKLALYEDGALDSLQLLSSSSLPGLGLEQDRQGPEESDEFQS
Protocol: as §1

LTK = target: T11, LTK (Homo sapiens, UniProt P29376)
T11 construct: purchased Reaction Biology Europe GmbH (formerly ProQinase)
T11 sequence (P29376 17-864): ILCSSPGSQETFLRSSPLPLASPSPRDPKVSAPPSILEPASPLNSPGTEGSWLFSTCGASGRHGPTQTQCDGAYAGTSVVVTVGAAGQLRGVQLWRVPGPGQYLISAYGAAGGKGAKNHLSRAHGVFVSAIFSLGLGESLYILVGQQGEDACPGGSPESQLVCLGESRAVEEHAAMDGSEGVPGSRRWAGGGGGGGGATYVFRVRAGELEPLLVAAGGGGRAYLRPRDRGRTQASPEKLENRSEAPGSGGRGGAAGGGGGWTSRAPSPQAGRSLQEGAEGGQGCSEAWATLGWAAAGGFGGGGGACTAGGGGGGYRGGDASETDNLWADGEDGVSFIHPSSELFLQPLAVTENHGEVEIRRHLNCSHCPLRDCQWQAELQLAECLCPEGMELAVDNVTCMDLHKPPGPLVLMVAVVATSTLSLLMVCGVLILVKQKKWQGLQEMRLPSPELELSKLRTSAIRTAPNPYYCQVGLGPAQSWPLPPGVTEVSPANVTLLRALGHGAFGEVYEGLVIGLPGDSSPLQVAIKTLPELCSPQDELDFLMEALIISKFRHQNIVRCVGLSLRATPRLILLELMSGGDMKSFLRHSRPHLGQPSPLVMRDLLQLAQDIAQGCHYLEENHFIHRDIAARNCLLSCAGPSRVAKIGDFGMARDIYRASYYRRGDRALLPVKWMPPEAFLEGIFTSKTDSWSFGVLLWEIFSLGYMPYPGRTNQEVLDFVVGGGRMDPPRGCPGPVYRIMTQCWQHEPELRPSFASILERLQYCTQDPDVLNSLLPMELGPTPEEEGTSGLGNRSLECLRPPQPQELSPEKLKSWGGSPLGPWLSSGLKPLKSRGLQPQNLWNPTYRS
Protocol: as §1

MST3 = target: T12, MST3 (Homo sapiens, UniProt Q9Y6E0)
T12 construct: purchased Reaction Biology Europe GmbH (formerly ProQinase)
Protocol: as §1

PAK2 = target: T13, PAK2 (Homo sapiens, UniProt Q13177)
T13 construct: purchased Reaction Biology Europe GmbH (formerly ProQinase)
Protocol: as §1

PKCε = target: T14, PKCε (Homo sapiens, UniProt Q02156)
T14 construct: purchased Reaction Biology Europe GmbH (formerly ProQinase)
T14 sequence (Q02156 1-737): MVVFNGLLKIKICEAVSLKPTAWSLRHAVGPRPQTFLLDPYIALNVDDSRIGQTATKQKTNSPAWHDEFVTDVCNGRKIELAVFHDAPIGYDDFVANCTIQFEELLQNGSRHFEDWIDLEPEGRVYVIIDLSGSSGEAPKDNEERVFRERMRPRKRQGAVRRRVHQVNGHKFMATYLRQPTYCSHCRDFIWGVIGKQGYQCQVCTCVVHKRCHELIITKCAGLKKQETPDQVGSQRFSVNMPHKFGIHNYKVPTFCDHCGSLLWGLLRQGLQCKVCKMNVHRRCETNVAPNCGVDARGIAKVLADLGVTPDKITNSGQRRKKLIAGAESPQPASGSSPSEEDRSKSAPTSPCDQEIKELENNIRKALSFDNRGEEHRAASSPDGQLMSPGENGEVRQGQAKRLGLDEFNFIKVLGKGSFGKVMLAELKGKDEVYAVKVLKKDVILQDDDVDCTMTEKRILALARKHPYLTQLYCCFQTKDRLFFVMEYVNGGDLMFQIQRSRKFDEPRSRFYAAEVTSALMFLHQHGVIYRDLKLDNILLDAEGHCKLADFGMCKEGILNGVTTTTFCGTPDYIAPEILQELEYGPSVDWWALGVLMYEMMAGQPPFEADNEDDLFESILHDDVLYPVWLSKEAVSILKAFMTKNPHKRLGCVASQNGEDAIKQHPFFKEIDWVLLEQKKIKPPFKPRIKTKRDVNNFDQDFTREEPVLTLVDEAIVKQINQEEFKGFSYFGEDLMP
Protocol: as §1

STK23 = target: T15, STK23 (Homo sapiens, UniProt Q9UPE1)
T15 construct: purchased Reaction Biology Europe GmbH (formerly ProQinase)
T15 sequence (Q9UPE1 whole entry): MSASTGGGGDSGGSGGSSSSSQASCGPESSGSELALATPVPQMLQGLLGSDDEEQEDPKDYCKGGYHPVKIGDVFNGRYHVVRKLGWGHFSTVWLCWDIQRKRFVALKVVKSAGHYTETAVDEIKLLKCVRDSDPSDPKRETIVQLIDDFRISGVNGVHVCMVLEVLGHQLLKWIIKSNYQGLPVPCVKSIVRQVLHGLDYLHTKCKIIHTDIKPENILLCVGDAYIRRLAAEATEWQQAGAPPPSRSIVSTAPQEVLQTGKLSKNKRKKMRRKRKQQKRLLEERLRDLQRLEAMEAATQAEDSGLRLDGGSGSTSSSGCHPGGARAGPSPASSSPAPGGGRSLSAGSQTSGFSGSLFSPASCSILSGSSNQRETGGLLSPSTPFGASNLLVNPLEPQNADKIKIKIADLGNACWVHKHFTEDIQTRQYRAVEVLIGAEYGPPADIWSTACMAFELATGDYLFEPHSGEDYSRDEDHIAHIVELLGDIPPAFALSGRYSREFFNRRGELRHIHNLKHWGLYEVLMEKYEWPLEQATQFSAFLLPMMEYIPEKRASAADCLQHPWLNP
Protocol: as §1

VRK2 = target: T16, VRK2 (Homo sapiens, UniProt Q86Y07)
T16 construct: purchased Reaction Biology Europe GmbH (formerly ProQinase)
T16 sequence (Q86Y07 whole entry): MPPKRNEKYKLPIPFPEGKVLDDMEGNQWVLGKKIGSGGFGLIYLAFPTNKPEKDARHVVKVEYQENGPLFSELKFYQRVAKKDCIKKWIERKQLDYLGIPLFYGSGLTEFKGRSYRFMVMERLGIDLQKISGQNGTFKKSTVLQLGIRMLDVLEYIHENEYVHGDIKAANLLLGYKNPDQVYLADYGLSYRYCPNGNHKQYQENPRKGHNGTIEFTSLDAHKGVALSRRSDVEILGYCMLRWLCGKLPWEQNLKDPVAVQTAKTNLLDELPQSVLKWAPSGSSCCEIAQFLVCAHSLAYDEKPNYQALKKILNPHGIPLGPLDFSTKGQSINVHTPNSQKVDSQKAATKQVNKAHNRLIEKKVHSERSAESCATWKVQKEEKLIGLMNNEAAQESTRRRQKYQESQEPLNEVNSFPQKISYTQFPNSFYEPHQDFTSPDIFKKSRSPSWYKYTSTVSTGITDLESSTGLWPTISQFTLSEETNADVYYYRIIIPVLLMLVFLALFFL
Protocol: as §1

WNK1 = target: T17, WNK1 (Homo sapiens, UniProt Q9H4A3)
T17 construct: purchased Reaction Biology Europe GmbH (formerly ProQinase)
Protocol: as §1

SMILES | residual kinase activity (ARK5; 0.3 µM) | residual kinase activity (BTK; 0.3 µM) | residual kinase activity (CAMK2D; 0.3 µM) | residual kinase activity (CDK20/CycH; 0.3 µM) | residual kinase activity (CDK20/CycT1; 0.3 µM) | residual kinase activity (CHK2; 0.3 µM) | residual kinase activity (DYRK1B; 0.3 µM) | residual kinase activity (EGFR; 0.3 µM) | residual kinase activity (FYN; 0.3 µM) | residual kinase activity (IRAK1; 0.3 µM) | residual kinase activity (LTK; 0.3 µM) | residual kinase activity (MST3; 0.3 µM) | residual kinase activity (PAK2; 0.3 µM) | residual kinase activity (PKCε; 0.3 µM) | residual kinase activity (STK23; 0.3 µM) | residual kinase activity (VRK2; 0.3 µM) | residual kinase activity (WNK1; 0.3 µM) | other results
c1ccc(CNc2cc(-c3c[nH]c4ncccc34)ccn2)cc1 [meriolin 36] | 90 % of control | 103 % of control | 16 % of control | 29 % of control | 19 % of control | 81 % of control | 7 % of control | 107 % of control | 22 % of control | 49 % of control | 46 % of control | 71 % of control | 71 % of control | 5 % of control | 95 % of control | 93 % of control | 107 % of control | residual kinase activity (ARK5; 3 µM): 40 % of control; residual kinase activity (BTK; 3 µM): 77 % of control; residual kinase activity (CAMK2D; 3 µM): 1 % of control; residual kinase activity (CDK20/CycH; 3 µM): 13 % of control; residual kinase activity (CDK20/CycT1; 3 µM): 10 % of control; residual kinase activity (CHK2; 3 µM): 41 % of control; residual kinase activity (DYRK1B; 3 µM): 0 % of control; residual kinase activity (EGFR; 3 µM): 53 % of control; residual kinase activity (FYN; 3 µM): 3 % of control; residual kinase activity (IRAK1; 3 µM): 9 % of control; residual kinase activity (LTK; 3 µM): 11 % of control; residual kinase activity (MST3; 3 µM): 32 % of control; residual kinase activity (PAK2; 3 µM): 17 % of control; residual kinase activity (PKCε; 3 µM): 1 % of control; residual kinase activity (STK23; 3 µM): 88 % of control; residual kinase activity (VRK2; 3 µM): 45 % of control; residual kinase activity (WNK1; 3 µM): 98 % of control
COc1ccnc2[nH]cc(-c3cc(N)nc(N)c3)c12 [meriolin 16] | 88 % of control | 96 % of control | 64 % of control | 33 % of control | 17 % of control | 82 % of control | 0 % of control | 90 % of control | 69 % of control | 76 % of control | 98 % of control | 91 % of control | 93 % of control | 4 % of control | 78 % of control | 92 % of control | 100 % of control | residual kinase activity (ARK5; 0.03 µM): 92 % of control; residual kinase activity (BTK; 0.03 µM): 114 % of control; residual kinase activity (CAMK2D; 0.03 µM): 99 % of control; residual kinase activity (CDK20/CycH; 0.03 µM): 38 % of control; residual kinase activity (CDK20/CycT1; 0.03 µM): 36 % of control; residual kinase activity (CHK2; 0.03 µM): 90 % of control; residual kinase activity (DYRK1B; 0.03 µM): 8 % of control; residual kinase activity (EGFR; 0.03 µM): 109 % of control; residual kinase activity (FYN; 0.03 µM): 93 % of control; residual kinase activity (IRAK1; 0.03 µM): 95 % of control; residual kinase activity (LTK; 0.03 µM): 110 % of control; residual kinase activity (MST3; 0.03 µM): 101 % of control; residual kinase activity (PAK2; 0.03 µM): 92 % of control; residual kinase activity (PKCε; 0.03 µM): 25 % of control; residual kinase activity (STK23; 0.03 µM): 109 % of control; residual kinase activity (VRK2; 0.03 µM): 103 % of control; residual kinase activity (WNK1; 0.03 µM): 101 % of control

From article PMC11167047 (Cell Death Discovery, 2024)
